Measured values as given in patent US20230114728A1 (Venatorx Pharmaceuticals, Inc., priority 2019, published 2023).
In brackets after ≈: the same amount, converted by molar mass.

How the values were obtained:
Assay in all cases: Broth microdilution MIC in CAMHB
Type in all cases: cell-based
E. coli AG100 = settings: Escherichia coli; E. coli AG100 (wild-type parent); MHB; read-out: Minimum Inhibitory Concentration, E. coli AG100
Procedure, shortened: (§1)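 Hyper-permeable or efflux-deficient strains serve to probe outer-membrane penetration. Growth inhibition is scored visually after 16-20 h at 37° C in CAMHB, starting from 2-8×10^5 CFU/mL.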

[1] = test system: K. pneumoniae UMM producing SHV-5 and KPC-2; settings: Klebsiella pneumoniae, read-out: Minimum Inhibitory Concentration, K. pneumoniae UMM
Procedure, shortened: as §1

E. coli D22 = settings: Escherichia coli; E. coli D22 (hyper-permeable); MHB; read-out: Minimum Inhibitory Concentration, E. coli D22
Procedure, shortened: as §1

E. coli 901C = settings: Escherichia coli; E. coli 901C (hyper-permeable); MHB; read-out: Minimum Inhibitory Concentration, E. coli 901C
Procedure, shortened: as §1

P. aeruginosa ATCC 35151 = settings: Pseudomonas aeruginosa, ATCC35151; MHB; hyper-permeable strain; read-out: Minimum Inhibitory Concentration, P. aeruginosa ATCC 35151
Procedure, shortened: as §1

E. coli AG100A = settings: Escherichia coli, read-out: Minimum Inhibitory Concentration, E. coli AG100A
Procedure, shortened: as §1

[2] = test system: P. aeruginosa (ΔmexAB-oprM); settings: Pseudomonas aeruginosa, read-out: Minimum Inhibitory Concentration, P. aeruginosa ΔmexAB-OprM
Procedure, shortened: as §1

E. coli ATCC 25922 = settings: Escherichia coli, ATCC25922; E. coli ATCC 25922; MHB; read-out: Minimum Inhibitory Concentration, E. coli 25922
Procedure, shortened: as §1

[3] = test system: K. pneumoniae 848844 producing SHV-11 and KPC-2; settings: Klebsiella pneumoniae, read-out: Minimum Inhibitory Concentration, K. pneumoniae 848844
Procedure, shortened: as §1

[4] = test system: K. pneumoniae SI-117 producing VIM-1; settings: Klebsiella pneumoniae, read-out: Minimum Inhibitory Concentration, K. pneumoniae SI-117
Procedure, shortened: as §1

P. aeruginosa ATCC 27853 = settings: Pseudomonas aeruginosa, ATCC27853; MHB; read-out: Minimum Inhibitory Concentration, P. aeruginosa ATCC 27853
Procedure, shortened: as §1

A. baumannii ATCC 19606 = settings: Acinetobacter baumannii, ATCC19606; MHB; read-out: Minimum Inhibitory Concentration, A. baumannii ATCC 19606
Procedure, shortened: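 CLSI microdilution; CAMHB; inoculum 2-8×10^5 CFU/mL from 3-5 h 37° C culture; 2-fold compound series; 16-20 h, 37° C; MIC = lowest well without visible growth.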

Structure (SMILES) | MIC (E. coli AG100) | MIC [1] | MIC (E. coli D22) | MIC (E. coli 901C) | MIC (P. aeruginosa ATCC 35151) | MIC (E. coli AG100A) | MIC [2] | MIC (E. coli ATCC 25922) | MIC [3] | MIC [4] | MIC (P. aeruginosa ATCC 27853) | MIC (A. baumannii ATCC 19606)
NS(=O)(=O)Nc1cccc(C(NC(=O)N2CCN(CCF)C(=O)C2=O)C(=O)N[C@H]2Cc3cccc(C(=O)O)c3OB2O)c1 (stereo partly drawn) [Example 116, (3R)-3-(2-(4-(2-fluoroethyl)-2,3-dioxopiperazine-1-carboxamido)-2-(3-(sulfamoylamino)phenyl)acetamido)-2-hydroxy-3,4-dihydro-2H-benzo[e][1,2]oxaborinine-8-carboxylic acid] | 8 to 16 µg/mL (≈ 12.9 to 25.8 µM) | 32 to 64 µg/mL (≈ 51.6 to 103 µM) | 0.5 to 1 µg/mL (≈ 0.806 to 1.61 µM) | < 0.25 µg/mL | 0.5 to 1 µg/mL (≈ 0.806 to 1.61 µM) | 2 to 4 µg/mL (≈ 3.22 to 6.45 µM) | 8 to 16 µg/mL (≈ 12.9 to 25.8 µM) | 8 to 16 µg/mL (≈ 12.9 to 25.8 µM) | > 128 µg/mL | 32 to 64 µg/mL (≈ 51.6 to 103 µM) | > 128 µg/mL | > 128 µg/mL
NCCCN1CCN(C(=O)N[C@@H](C(=O)N[C@H]2Cc3cccc(C(=O)O)c3OB2O)c2cccc(NS(N)(=O)=O)c2)C(=O)C1=O [Example 117, (R)-3-((R)-2-(4-(3-aminopropyl)-2,3-dioxopiperazine-1-carboxamido)-2-(3-(sulfamoylamino)phenyl)acetamido)-2-hydroxy-3,4-dihydro-2H-benzo[e][1,2]oxaborinine-8-carboxylic acid] | 32 to 64 µg/mL (≈ 50.7 to 101 µM) | 32 to 64 µg/mL (≈ 50.7 to 101 µM) | 2 to 4 µg/mL (≈ 3.17 to 6.33 µM) | 2 to 4 µg/mL (≈ 3.17 to 6.33 µM) | < 0.25 µg/mL | 2 to 4 µg/mL (≈ 3.17 to 6.33 µM) | 2 to 4 µg/mL (≈ 3.17 to 6.33 µM) | 32 to 64 µg/mL (≈ 50.7 to 101 µM) | 32 to 64 µg/mL (≈ 50.7 to 101 µM) | 32 to 64 µg/mL (≈ 50.7 to 101 µM) | 32 to 64 µg/mL (≈ 50.7 to 101 µM) | 32 to 64 µg/mL (≈ 50.7 to 101 µM)
NCCCN1CCN(C(=O)N[C@H](C(=O)N[C@H]2Cc3cccc(C(=O)O)c3OB2O)c2cccc(NS(N)(=O)=O)c2)C(=O)C1=O [Example 118, (R)-3-((S)-2-(4-(3-aminopropyl)-2,3-dioxopiperazine-1-carboxamido)-2-(3-(sulfamoylamino)phenyl)acetamido)-2-hydroxy-3,4-dihydro-2H-benzo[e][1,2]oxaborinine-8-carboxylic acid] | 32 to 64 µg/mL (≈ 50.7 to 101 µM) | 32 to 64 µg/mL (≈ 50.7 to 101 µM) | 8 to 16 µg/mL (≈ 12.7 to 25.3 µM) | 2 to 4 µg/mL (≈ 3.17 to 6.33 µM) | 0.5 to 1 µg/mL (≈ 0.792 to 1.58 µM) | 2 to 4 µg/mL (≈ 3.17 to 6.33 µM) | 8 to 16 µg/mL (≈ 12.7 to 25.3 µM) | 32 to 64 µg/mL (≈ 50.7 to 101 µM) | > 128 µg/mL | > 128 µg/mL | > 128 µg/mL | > 128 µg/mL
NC1(CN2CCN(C(=O)NC(C(=O)N[C@H]3Cc4cccc(C(=O)O)c4OB3O)c3cccc(NS(N)(=O)=O)c3)C(=O)C2=O)CC1 (stereo partly drawn) [Example 120, (3R)-3-(2-(4-((1-aminocyclopropyl)methyl)-2,3-dioxopiperazine-1-carboxamido)-2-(3-(sulfamoylamino)phenyl)acetamido)-2-hydroxy-3,4-dihydro-2H-benzo[e][1,2]oxaborinine-8-carboxylic acid] | > 128 µg/mL | 32 to 64 µg/mL (≈ 49.7 to 99.5 µM) | 8 to 16 µg/mL (≈ 12.4 to 24.9 µM) | 2 to 4 µg/mL (≈ 3.11 to 6.22 µM) | 0.5 to 1 µg/mL (≈ 0.777 to 1.55 µM) | 8 to 16 µg/mL (≈ 12.4 to 24.9 µM) | 8 to 16 µg/mL (≈ 12.4 to 24.9 µM) | > 128 µg/mL | > 128 µg/mL | > 128 µg/mL | > 128 µg/mL | > 128 µg/mL
O=C(O)c1c(F)ccc2c1OB(O)[C@@H](NC(=O)C(NC(=O)N1CCN(CCF)C(=O)C1=O)c1c(F)cc(O)cc1F)C2 (stereo partly drawn) [Example 129, (3R)-3-(2-(2,6-difluoro-4-hydroxyphenyl)-2-(4-(2-fluoroethyl)-2,3-dioxopiperazine-1-carboxamido)acetamido)-7-fluoro-2-hydroxy-3,4-dihydro-2H-benzo[e][1,2]oxaborinine-8-carboxylic acid] | 32 to 64 µg/mL (≈ 53.7 to 107 µM) | 32 to 64 µg/mL (≈ 53.7 to 107 µM) | 2 to 4 µg/mL (≈ 3.35 to 6.71 µM) | 0.5 to 1 µg/mL (≈ 0.839 to 1.68 µM) | 0.5 to 1 µg/mL (≈ 0.839 to 1.68 µM) | 8 to 16 µg/mL (≈ 13.4 to 26.8 µM) | 32 to 64 µg/mL (≈ 53.7 to 107 µM) | 32 to 64 µg/mL (≈ 53.7 to 107 µM) | 32 to 64 µg/mL (≈ 53.7 to 107 µM) | 32 to 64 µg/mL (≈ 53.7 to 107 µM) | > 128 µg/mL | > 128 µg/mL
CCN1CCN(C(=O)NC(C(=O)N[C@H]2Cc3ccc(F)c(C(=O)O)c3OB2O)c2c(F)cc(O)cc2F)C(=O)C1=O (stereo partly drawn) [Example 130, (3R)-3-(2-(2,6-difluoro-4-hydroxyphenyl)-2-(4-ethyl-2,3-dioxopiperazine-1-carboxamido)acetamido)-7-fluoro-2-hydroxy-3,4-dihydro-2H-benzo[e][1,2]oxaborinine-8-carboxylic acid] | 32 to 64 µg/mL (≈ 55.3 to 111 µM) | 8 to 16 µg/mL (≈ 13.8 to 27.7 µM) | 2 to 4 µg/mL (≈ 3.46 to 6.92 µM) | < 0.25 µg/mL | < 0.25 µg/mL | 8 to 16 µg/mL (≈ 13.8 to 27.7 µM) | 32 to 64 µg/mL (≈ 55.3 to 111 µM) | 32 to 64 µg/mL (≈ 55.3 to 111 µM) | 32 to 64 µg/mL (≈ 55.3 to 111 µM) | 32 to 64 µg/mL (≈ 55.3 to 111 µM) | > 128 µg/mL | > 128 µg/mL
